Entries after “also recorded” stand apart in the source; their conditions may differ.
Assays:
UGT1A3 = biological target: T1, UGT1A3 (Homo sapiens, UniProt P35503); assay: Glucuronidation by recombinant human UGT1A3
T1 sequence (P35503 29-534): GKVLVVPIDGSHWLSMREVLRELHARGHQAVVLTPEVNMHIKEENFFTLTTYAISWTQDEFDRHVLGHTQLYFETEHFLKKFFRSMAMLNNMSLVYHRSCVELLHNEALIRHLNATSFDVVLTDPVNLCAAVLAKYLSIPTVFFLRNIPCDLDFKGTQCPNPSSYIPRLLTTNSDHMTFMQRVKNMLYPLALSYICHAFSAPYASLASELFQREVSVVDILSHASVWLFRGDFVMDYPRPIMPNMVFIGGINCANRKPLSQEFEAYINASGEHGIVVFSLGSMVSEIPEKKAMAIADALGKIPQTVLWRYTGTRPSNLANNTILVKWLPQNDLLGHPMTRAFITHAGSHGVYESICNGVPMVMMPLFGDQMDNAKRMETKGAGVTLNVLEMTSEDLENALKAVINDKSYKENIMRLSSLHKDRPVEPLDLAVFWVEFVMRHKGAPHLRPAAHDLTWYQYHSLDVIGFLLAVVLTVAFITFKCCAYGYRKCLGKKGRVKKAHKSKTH

UGT1A1 = biological target: T2, UGT1A1 (Homo sapiens, UniProt P22309); assay: Glucuronidation by recombinant human UGT1A1
T2 sequence (P22309 26-533): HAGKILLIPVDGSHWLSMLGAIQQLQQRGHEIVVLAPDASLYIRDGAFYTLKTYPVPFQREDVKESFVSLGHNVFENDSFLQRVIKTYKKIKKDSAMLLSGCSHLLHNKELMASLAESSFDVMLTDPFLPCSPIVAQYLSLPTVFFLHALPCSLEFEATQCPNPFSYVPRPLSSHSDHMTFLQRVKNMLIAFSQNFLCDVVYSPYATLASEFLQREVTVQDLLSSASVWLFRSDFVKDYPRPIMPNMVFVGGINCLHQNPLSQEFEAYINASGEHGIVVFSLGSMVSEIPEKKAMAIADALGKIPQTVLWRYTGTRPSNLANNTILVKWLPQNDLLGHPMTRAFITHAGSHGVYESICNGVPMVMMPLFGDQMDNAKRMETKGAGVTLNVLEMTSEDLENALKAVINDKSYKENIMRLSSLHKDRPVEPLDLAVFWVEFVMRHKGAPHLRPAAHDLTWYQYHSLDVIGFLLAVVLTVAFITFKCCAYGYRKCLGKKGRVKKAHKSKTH

UGT1A9 = biological target: T3, UGT1A9 (Homo sapiens, UniProt O60656); assay: Glucuronidation by recombinant human UGT1A9
T3 sequence (O60656 26-530): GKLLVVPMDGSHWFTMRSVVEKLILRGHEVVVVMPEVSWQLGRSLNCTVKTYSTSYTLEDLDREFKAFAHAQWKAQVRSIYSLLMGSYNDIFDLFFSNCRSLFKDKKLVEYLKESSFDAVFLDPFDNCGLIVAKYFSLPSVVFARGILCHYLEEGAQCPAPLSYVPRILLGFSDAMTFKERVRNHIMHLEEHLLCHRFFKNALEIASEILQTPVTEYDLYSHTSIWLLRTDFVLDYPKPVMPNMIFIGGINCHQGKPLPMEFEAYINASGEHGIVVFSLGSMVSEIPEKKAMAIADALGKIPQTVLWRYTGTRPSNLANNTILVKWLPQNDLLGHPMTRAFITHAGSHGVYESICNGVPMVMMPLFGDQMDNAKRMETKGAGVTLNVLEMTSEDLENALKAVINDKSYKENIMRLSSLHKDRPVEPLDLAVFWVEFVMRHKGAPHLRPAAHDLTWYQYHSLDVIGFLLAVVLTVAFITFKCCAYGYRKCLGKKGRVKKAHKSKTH

[1] = tested on: UGT 1A1, 1A3, 1A6, 1A7, 1A8, 1A9, 1A10 and 2B7; assay: Glucuronidation by the panel of 8 recombinant human UGT isoforms; conditions: substrate 10 μM

Compound | Degree of regiospecificity (major glucuronide in bracket) (UGT1A3; UGT1A3, substrate 2.5 μM) | Degree of regiospecificity (major glucuronide in bracket) (UGT1A3; UGT1A3, substrate 10 μM) | Degree of regiospecificity (major glucuronide in bracket) (UGT1A3; UGT1A3, substrate 10 μM, listed as 4’HFnol) | Degree of regiospecificity (major glucuronide in bracket) (UGT1A1; UGT1A1, substrate 2.5 μM) | Degree of regiospecificity (major glucuronide in bracket) (UGT1A1; UGT1A1, substrate 2.5 μM, listed as 4’HFnol) | Degree of regiospecificity (major glucuronide in bracket) (UGT1A1; UGT1A1, substrate 10 μM) | Degree of regiospecificity (major glucuronide in bracket) (UGT1A1; UGT1A1, substrate 10 μM, listed as 4’HFnol) | Degree of regiospecificity (major glucuronide in bracket) (UGT1A9; UGT1A9, substrate 2.5 μM) | Degree of regiospecificity (major glucuronide in bracket) (UGT1A9; UGT1A9, substrate 10 μM) | Glucuronidation and regiospecificity across the 8 UGT isoforms [1] | Degree of regiospecificity (major glucuronide in bracket) (UGT1A3; UGT1A3, substrate 10 μM, listed as 5,4’DHF) | Degree of regiospecificity (major glucuronide in bracket) (UGT1A1; UGT1A1, substrate 2.5 μM, listed as 5,4’DHF) | Degree of regiospecificity (major glucuronide in bracket) (UGT1A1; UGT1A1, substrate 10 μM, listed as 5,4’DHF) | Degree of regiospecificity (major glucuronide in bracket) (UGT1A9; UGT1A9, substrate 10 μM, listed as 5,4’DHF) | Degree of regiospecificity (major glucuronide in bracket) (UGT1A9; UGT1A9, substrate 10 μM, listed as 5,7THFnol) | Degree of regiospecificity (major glucuronide in bracket) (UGT1A3; UGT1A3, substrate 10 μM, listed as 7,4’DHF) | Degree of regiospecificity (major glucuronide in bracket) (UGT1A1; UGT1A1, substrate 2.5 μM, listed as 7,4’DHF) | Degree of regiospecificity (major glucuronide in bracket) (UGT1A1; UGT1A1, substrate 10 μM, listed as 7,4’DHF) | Degree of regiospecificity (major glucuronide in bracket) (UGT1A9; UGT1A9, substrate 10 μM, listed as 7,4’DHF)
O=c1c(O)c(-c2ccc(O)cc2)oc2ccccc12 [4'HFnol, 3,4’-dihydroxyflavone] | Dominant (3-O) | No (3-O, 4’-O) | no regiospecificity | No (3-O, 4’-O) | did not show any regiospecific preference | No (3-O, 4’-O) | no regiospecificity; also recorded: did not show any regiospecific preference | Dominant (3-O) | Dominant (3-O) | most isoforms showed dominant regiospecificity by glucuronidating almost only the 3-O position |  |  |  |  |  |  |  |  | 
O=c1cc(-c2ccc(O)cc2)oc2cccc(O)c12 [5,4'DHF, 5,4’-dihydroxyflavone] | Dominant (4’-O) | Moderate (4’-O) |  | Dominant (4’-O) |  | Dominant (4’-O) |  | Dominant (4’-O) | Dominant (4’-O) | 4’-O was the preferred position of glucuronidation in all cases | moderate regiospecificity for 4’-O position | dominant regiospecificity | dominant regiospecificity | dominant regiospecificity |  |  |  |  | 
O=c1c(O)c(-c2ccccc2)oc2cc(O)cc(O)c12 [5,7DHFnol, 3,5,7-trihydroxyflavone] | Dominant (7-O) | dominantly regiospecific for 7-O; also recorded: Dominant (7-O) |  | Weak (7-O) |  | weakly preferred the glucuronidation of 7-O over 3-O position; also recorded: Weak (7-O) |  | Weak (3-O) | did not show any regiospecific preference for any position; also recorded: No (3-O, 7-O) |  |  |  |  |  | 3-O and 7-O were glucuronidated at comparable rates |  |  |  | 
O=c1cc(-c2ccc(O)cc2)oc2cc(O)ccc12 [7,4'DHF, 7,4’-dihydroxyflavone] | Dominant (7-O) | Dominant (7-O) |  | Weak (7-O) |  | Moderate (7-O) |  | Moderate (7-O) | Moderate (7-O) | except UGT1A6, all metabolizing isoforms glucuronidated both hydroxyl groups at C-7 and C-4’ positions |  |  |  |  |  | dominant regiospecificity for glucuronidation of 7-O position | weak | moderate regiospecificity for glucuronidation of 7-O position | moderate regiospecificity for glucuronidation of 7-O position
O=c1c(O)c(-c2ccccc2)oc2ccccc12 [Fnol, 3-hydroxyflavone] |  |  |  |  |  |  |  |  |  | could be metabolized by any of the 8 UGT isoforms tested |  |  |  |  |  |  |  |  | 
